ChEMBL document CHEMBL1806380, “Rigidized 1-aryl sulfonyl tryptamines: synthesis and pharmacological evaluation as 5-HT6 receptor ligands” (Bioorg Med Chem Lett, 2011)
Calls of active or inactive are those of the source. No cut-off for these calls is given here.

Assays:
[1] = target: 5-hydroxytryptamine receptor 6 (Homo sapiens) (UniProt P50406); assay: Binding affinity to human recombinant 5HT6 receptor expressed in CHO cells co-expressing pCRE-Luc gene assessed as modulation of serotonin-induced intracellular cAMP level after 4 hrs by luciferase based luminescence assay; format: cell-based
[2] = target: 5-hydroxytryptamine receptor 2A (Homo sapiens) (UniProt P28223); assay: Inhibition of 5HT2A receptor at 0.5 uM
[3] = target: T1, 5-hydroxytryptamine receptor 2C (Homo sapiens) (UniProt P28335); assay: Inhibition of 5HT2C receptor at 0.5 uM
T1 sequence (whole entry): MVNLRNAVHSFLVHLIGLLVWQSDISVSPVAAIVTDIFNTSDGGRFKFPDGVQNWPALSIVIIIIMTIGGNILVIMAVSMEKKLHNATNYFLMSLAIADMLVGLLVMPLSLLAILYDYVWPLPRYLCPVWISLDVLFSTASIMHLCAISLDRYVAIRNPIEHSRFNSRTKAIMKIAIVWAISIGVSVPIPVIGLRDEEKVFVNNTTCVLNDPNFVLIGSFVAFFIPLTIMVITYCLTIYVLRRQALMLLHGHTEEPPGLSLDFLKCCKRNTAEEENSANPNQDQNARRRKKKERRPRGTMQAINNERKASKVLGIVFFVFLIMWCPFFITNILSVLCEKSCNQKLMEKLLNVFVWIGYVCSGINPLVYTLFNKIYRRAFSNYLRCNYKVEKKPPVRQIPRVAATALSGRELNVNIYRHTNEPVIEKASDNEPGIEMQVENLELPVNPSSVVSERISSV

[4] = target: 5-hydroxytryptamine receptor 4 (Homo sapiens) (UniProt Q13639); assay: Binding affinity to human recombinant 5HT4 receptor expressed in CHO cells co-expressing pCRE-Luc gene assessed as modulation of serotonin-induced intracellular cAMP level at 0.5 uM after 5 hrs by luciferase based luminescence assay; format: cell-based
[5] = target: 5-hydroxytryptamine receptor 7 (Rattus norvegicus) (UniProt P32305); assay: Binding affinity to rat 5HT7 receptor expressed in CHO cells co-expressing pCRE-Luc gene assessed as modulation of serotonin-induced intracellular cAMP level at 0.5 uM after 5 hrs by luciferase based luminescence assay; format: cell-based
[6] = target: Histamine H1 receptor (Homo sapiens) (UniProt P35367); assay: Inhibition of histamine H1 receptor at 0.5 uM
[7] = target: D(2) dopamine receptor (Homo sapiens) (UniProt P14416); assay: Inhibition of dopamine D2 receptor at 0.5 uM
[8] = target: T2, Alpha-1B adrenergic receptor (Homo sapiens) (UniProt P35368); assay: Inhibition of adrenergic alpha1b receptor at 0.5 uM
T2 sequence (whole entry): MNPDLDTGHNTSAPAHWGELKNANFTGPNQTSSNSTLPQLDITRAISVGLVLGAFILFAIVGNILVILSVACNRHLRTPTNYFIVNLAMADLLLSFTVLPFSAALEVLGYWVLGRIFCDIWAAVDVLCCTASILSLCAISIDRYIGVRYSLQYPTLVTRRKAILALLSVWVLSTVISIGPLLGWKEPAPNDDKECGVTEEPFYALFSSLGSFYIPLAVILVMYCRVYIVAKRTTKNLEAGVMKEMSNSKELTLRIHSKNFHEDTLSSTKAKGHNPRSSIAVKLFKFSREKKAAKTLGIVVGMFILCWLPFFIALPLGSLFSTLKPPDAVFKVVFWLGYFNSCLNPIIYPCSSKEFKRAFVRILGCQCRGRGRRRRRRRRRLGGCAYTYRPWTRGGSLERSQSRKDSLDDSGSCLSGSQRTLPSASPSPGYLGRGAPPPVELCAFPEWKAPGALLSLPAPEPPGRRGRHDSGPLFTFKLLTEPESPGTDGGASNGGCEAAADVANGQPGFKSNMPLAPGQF

[9] = target: T3, Muscarinic acetylcholine receptor M1 (Homo sapiens) (UniProt P11229); assay: Binding affinity to human muscarinic M1 receptor expressed in CHO cells co-expressing pCRE-Luc gene assessed as modulation of acetylcholine-induced intracellular cAMP level at 0.5 uM after 5 hrs by luciferase based luminescence assay; format: cell-based
T3 sequence (whole entry): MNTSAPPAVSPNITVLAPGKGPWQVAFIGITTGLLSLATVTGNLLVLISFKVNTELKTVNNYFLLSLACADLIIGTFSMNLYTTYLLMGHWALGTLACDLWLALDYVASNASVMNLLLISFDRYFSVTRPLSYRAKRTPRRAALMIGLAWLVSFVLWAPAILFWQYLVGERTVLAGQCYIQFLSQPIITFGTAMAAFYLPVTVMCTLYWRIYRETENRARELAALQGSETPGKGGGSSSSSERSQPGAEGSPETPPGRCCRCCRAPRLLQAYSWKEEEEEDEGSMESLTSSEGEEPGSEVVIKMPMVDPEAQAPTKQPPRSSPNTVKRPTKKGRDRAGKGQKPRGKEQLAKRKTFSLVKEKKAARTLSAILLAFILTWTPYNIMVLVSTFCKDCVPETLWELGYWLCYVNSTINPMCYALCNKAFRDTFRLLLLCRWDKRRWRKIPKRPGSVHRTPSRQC

[10] = target: Sodium-dependent serotonin transporter (Homo sapiens) (UniProt P31645); assay: Inhibition of SERT at 0.5 uM
[11] = target: Sodium-dependent dopamine transporter (Homo sapiens) (UniProt Q01959); assay: Inhibition of DAT at 0.5 uM
[12] = target: Sodium-dependent noradrenaline transporter (Homo sapiens) (UniProt P23975); assay: Inhibition of NET at 0.5 uM
[13] = Metabolic stability in human liver microsomes assessed as drug metabolized level after 30 mins; format: ADME, Microsome; conditions: read-out: Activity
[14] = Metabolic stability in rat liver microsomes assessed as drug metabolized level after 30 mins; format: ADME, Microsome; conditions: read-out: Activity
Cytochrome P450 2D6 = Cytochrome P450 2D6 (Homo sapiens, UniProt P10635); assay: Inhibition of CYP2D6; format: ADME
Cytochrome P450 3A4 = Cytochrome P450 3A4 (Homo sapiens, UniProt P08684); assay: Inhibition of CYP3A4; format: ADME
[15] = Cmax in Wistar rat at 10 mg/kg, po; format: ADME, organism-based; set-up: dose 10 mg/kg, route oral; conditions: in vivo
[16] = Cmax in Wistar rat at 10 mg/kg, iv; format: ADME, organism-based; set-up: dose 10 mg/kg, route intravenous; conditions: in vivo
[17] = AUCt in Wistar rat at 10 mg/kg, po; format: ADME, organism-based; set-up: dose 10 mg/kg, route oral; conditions: plasma
[18] = AUCt in Wistar rat at 10 mg/kg, iv; format: ADME, organism-based; set-up: dose 10 mg/kg, route intravenous; conditions: plasma
[19] = Half life in Wistar rat at 10 mg/kg, po; format: ADME, organism-based; set-up: dose 10 mg/kg, route oral; conditions: in vivo
[20] = Half life in Wistar rat at 10 mg/kg, iv; format: ADME, organism-based; set-up: dose 10 mg/kg, route intravenous; conditions: in vivo
Rattus norvegicus [21] = assay: Apparent volume of distribution in Wistar rat at 10 mg/kg, po; format: ADME, organism-based; set-up: dose 10 mg/kg, route oral; conditions: in vivo
[22] = Apparent volume of distribution in Wistar rat at 10 mg/kg, iv; format: ADME, organism-based; set-up: dose 10 mg/kg, route intravenous; conditions: in vivo, read-out: Vz
[23] = Clearance in Wistar rat at 10 mg/kg, po; format: ADME, organism-based; set-up: dose 10 mg/kg, route oral; conditions: in vivo
[24] = Clearance in Wistar rat at 10 mg/kg, iv; format: ADME, organism-based; set-up: dose 10 mg/kg, route intravenous; conditions: in vivo
[25] = Oral bioavailability in Wistar rat at 10 mg/kg; format: ADME, organism-based; conditions: in vivo
[26] = Ratio of drug level in brain to plasma in Wistar rat at 1 mg/kg, iv after 6 hrs; format: ADME, organism-based; set-up: dose 1 mg/kg, route intravenous
Rattus norvegicus [27] = assay: Cognitive enhancing effect in rat at 10 mg/kg, po after 60 mins by novel object recognition test; format: functional, organism-based; set-up: dose 10 mg/kg
Rattus norvegicus [28] = assay: Cognitive enhancing effect against scopolamine-induced memory deficit in rat at 10 mg/kg, po by morris water maze test; format: functional, organism-based; set-up: dose 10 mg/kg

Sodium-dependent noradrenaline transporter (Homo sapiens), sequence (P23975 whole entry): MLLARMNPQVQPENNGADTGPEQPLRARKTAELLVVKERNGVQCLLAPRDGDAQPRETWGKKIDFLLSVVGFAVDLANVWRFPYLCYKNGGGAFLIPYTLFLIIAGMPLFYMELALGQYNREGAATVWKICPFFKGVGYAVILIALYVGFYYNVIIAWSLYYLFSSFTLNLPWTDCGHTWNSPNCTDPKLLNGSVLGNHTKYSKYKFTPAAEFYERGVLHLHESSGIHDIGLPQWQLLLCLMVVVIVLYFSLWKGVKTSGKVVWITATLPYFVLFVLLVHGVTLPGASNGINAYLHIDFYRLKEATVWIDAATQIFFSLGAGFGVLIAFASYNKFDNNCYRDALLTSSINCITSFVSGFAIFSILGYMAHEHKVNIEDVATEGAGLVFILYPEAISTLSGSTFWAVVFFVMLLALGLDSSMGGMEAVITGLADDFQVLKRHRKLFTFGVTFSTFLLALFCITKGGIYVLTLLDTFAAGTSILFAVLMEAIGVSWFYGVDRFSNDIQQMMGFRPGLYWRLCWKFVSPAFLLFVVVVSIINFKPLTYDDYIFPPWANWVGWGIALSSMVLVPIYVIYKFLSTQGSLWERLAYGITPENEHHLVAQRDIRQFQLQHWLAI
5-hydroxytryptamine receptor 6 (Homo sapiens), sequence (P50406 whole entry): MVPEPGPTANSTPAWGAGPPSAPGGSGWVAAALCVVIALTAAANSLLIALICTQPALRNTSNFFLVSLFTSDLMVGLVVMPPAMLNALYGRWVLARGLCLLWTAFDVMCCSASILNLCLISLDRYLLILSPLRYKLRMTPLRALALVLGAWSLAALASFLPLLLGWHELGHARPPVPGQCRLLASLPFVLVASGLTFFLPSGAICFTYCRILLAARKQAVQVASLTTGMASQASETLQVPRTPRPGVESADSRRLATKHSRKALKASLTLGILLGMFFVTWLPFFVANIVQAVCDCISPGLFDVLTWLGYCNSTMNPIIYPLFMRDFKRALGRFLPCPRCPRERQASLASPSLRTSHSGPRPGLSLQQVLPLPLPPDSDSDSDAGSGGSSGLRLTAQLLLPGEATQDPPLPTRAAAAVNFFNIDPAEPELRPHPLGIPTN
Cytochrome P450 2D6, sequence (P10635 whole entry): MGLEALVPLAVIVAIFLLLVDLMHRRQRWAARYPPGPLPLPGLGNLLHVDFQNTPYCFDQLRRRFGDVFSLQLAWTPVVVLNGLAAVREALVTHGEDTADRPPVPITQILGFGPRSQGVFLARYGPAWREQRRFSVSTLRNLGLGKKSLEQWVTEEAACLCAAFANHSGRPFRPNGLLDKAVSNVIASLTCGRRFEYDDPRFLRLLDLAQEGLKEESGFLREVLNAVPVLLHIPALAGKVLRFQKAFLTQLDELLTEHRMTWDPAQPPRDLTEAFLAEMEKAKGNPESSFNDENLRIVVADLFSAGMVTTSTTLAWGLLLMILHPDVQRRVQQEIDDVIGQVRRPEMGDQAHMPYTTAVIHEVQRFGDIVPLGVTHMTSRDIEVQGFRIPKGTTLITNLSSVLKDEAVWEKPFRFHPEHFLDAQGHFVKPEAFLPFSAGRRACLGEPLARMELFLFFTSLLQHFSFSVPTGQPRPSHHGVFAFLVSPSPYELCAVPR
Sodium-dependent serotonin transporter (Homo sapiens), sequence (P31645 whole entry, looked up): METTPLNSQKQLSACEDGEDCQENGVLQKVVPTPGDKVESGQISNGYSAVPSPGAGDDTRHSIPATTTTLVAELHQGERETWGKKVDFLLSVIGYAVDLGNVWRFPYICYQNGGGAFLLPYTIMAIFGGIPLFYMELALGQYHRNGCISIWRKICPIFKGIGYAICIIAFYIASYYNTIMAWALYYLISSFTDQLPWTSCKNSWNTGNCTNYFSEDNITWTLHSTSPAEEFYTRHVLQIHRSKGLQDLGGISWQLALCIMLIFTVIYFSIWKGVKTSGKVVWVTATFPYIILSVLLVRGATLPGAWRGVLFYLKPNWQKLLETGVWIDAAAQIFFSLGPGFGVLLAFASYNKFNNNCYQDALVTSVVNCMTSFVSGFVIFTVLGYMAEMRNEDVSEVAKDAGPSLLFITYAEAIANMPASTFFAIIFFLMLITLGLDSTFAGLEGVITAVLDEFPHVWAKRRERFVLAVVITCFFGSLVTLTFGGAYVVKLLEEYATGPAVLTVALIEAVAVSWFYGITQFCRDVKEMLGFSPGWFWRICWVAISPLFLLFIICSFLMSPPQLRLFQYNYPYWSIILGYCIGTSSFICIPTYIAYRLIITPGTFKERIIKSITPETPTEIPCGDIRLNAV
5-hydroxytryptamine receptor 7 (Rattus norvegicus), sequence (P32305 whole entry): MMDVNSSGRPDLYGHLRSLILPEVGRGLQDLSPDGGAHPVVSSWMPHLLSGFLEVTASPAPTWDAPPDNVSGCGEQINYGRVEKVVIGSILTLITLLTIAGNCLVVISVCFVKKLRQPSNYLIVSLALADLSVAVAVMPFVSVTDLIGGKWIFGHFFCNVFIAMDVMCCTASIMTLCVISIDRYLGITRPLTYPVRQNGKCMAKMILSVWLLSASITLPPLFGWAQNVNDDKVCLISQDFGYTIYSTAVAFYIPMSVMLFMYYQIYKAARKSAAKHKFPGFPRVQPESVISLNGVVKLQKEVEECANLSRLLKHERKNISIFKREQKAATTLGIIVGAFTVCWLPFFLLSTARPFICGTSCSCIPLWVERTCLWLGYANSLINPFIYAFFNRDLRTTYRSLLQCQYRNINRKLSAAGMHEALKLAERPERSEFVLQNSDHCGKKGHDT
Histamine H1 receptor (Homo sapiens), sequence (P35367 whole entry): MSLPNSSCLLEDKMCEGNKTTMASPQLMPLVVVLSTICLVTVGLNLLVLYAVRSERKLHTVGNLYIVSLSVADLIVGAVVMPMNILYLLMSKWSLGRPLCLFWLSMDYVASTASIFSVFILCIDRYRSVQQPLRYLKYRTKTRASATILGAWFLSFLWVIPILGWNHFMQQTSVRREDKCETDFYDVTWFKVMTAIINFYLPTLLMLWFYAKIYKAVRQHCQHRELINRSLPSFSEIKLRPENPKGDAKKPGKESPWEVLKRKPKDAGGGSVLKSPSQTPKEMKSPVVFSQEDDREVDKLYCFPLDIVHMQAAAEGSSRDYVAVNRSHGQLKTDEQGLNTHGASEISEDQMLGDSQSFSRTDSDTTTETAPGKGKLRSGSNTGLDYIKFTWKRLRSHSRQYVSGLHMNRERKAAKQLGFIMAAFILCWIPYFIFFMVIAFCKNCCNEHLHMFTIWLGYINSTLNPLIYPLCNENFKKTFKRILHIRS
5-hydroxytryptamine receptor 2A (Homo sapiens), sequence (P28223 whole entry): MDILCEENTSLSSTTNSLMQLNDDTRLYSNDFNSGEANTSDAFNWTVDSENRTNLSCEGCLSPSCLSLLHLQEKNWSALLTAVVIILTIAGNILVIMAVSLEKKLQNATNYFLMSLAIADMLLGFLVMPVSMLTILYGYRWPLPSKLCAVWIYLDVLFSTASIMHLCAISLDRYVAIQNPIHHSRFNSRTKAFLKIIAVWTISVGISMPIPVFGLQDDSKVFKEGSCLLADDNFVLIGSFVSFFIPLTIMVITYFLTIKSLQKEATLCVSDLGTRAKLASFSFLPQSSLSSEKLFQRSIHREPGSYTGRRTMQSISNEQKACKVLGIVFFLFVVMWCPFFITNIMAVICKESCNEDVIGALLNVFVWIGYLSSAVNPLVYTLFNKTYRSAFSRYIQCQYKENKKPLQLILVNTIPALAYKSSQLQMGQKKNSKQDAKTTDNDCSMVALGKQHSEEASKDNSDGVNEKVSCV
D(2) dopamine receptor (Homo sapiens), sequence (P14416 whole entry): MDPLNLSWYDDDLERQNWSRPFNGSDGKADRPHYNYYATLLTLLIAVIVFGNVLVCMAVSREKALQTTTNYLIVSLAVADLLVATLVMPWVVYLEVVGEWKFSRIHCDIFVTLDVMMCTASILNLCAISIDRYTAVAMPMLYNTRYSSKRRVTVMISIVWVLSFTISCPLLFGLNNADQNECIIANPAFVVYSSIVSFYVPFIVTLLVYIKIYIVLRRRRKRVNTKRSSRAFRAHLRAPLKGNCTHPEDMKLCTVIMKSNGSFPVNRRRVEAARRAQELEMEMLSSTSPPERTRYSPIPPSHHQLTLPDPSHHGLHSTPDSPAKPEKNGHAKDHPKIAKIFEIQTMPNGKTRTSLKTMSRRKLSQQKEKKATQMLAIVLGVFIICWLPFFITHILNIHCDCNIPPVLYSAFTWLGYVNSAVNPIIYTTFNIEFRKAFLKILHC
Cytochrome P450 3A4, sequence (P08684 whole entry): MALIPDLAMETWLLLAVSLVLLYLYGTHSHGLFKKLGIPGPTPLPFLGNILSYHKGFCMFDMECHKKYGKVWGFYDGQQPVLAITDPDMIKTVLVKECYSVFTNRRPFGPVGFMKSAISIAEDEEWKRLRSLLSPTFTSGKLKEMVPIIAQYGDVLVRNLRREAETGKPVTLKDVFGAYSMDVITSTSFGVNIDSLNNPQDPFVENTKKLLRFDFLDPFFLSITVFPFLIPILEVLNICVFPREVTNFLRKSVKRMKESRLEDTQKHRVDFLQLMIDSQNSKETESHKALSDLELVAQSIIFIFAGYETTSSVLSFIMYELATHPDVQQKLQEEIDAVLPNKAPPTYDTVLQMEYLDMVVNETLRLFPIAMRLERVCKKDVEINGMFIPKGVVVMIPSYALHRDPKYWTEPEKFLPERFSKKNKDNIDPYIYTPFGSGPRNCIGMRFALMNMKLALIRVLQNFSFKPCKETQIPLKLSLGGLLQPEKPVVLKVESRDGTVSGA
5-hydroxytryptamine receptor 4 (Homo sapiens), sequence (Q13639 whole entry): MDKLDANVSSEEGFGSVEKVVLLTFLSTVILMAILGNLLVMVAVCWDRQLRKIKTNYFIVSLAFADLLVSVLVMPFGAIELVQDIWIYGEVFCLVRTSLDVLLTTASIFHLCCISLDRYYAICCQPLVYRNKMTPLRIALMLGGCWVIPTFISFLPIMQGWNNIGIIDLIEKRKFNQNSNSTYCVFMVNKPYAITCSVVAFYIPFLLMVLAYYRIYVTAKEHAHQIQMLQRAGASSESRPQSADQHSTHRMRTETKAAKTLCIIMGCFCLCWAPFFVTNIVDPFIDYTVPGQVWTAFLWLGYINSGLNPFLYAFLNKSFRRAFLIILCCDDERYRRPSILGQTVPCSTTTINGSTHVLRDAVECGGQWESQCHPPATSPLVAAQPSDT

Q: For `CN1CC(Cl)=C(c2cn(S(=O)(=O)c3ccccc3)c3ccccc23)C1`, which Kb [1] is on record?
A: 0.0001 µM

Q: What about the inhibition [2] of the same compound?
A: < 50%

Q: And the inhibition [3]?
A: < 50%

Q: And the inhibition [4]?
A: < 50%

Q: And the inhibition [5]?
A: < 50%

Q: And the inhibition [6]?
A: < 50%

Q: What about the inhibition [7] of the same compound?
A: < 50%

Q: And the inhibition [8]?
A: < 50%

Q: What about the inhibition [9] of the same compound?
A: < 50%

Q: What about the inhibition [10] of the same compound?
A: < 50%

Q: And the inhibition [11]?
A: < 50%

Q: What about the inhibition [12] of the same compound?
A: < 50%

Q: What about the metabolised at 0.5 h [13] of the same compound?
A: 43%

Q: What about the metabolised at 0.5 h [14] of the same compound?
A: 70%

Q: And the IC50 (Cytochrome P450 2D6)?
A: 21.1 µM

Q: What about the IC50 (Cytochrome P450 3A4) of the same compound?
A: 14.7 µM

Q: What about the Cmax [15] of the same compound?
A: 105 ng/mL

Q: And the Cmax [16]?
A: 2690 ng/mL

Q: And the AUC(0-t) [17]?
A: 268 ng·h/mL

Q: What about the AUC(0-t) [18] of the same compound?
A: 2320 ng·h/mL

Q: What about the half-life [19] of the same compound?
A: 3.75 h

Q: And the half-life [20]?
A: 5.48 h

Q: And the Vz (Rattus norvegicus [21])?
A: 196.287 L/kg

Q: And the Vd [22]?
A: 34.9 L/kg

Q: What about the CL/F [23] of the same compound?
A: 585 mL/min/kg

Q: What about the clearance [24] of the same compound?
A: 72.5 mL/min/kg

Q: And the bioavailability [25]?
A: 12%

Q: What about the Kp at 6 h [26] of the same compound?
A: 1.79

Q: What about the Activity (Rattus norvegicus [27]) of the same compound?
A: Active

Q: What about the Activity (Rattus norvegicus [28]) of the same compound?
A: Active
